Assay results taken from ChEMBL document CHEMBL5724914, “Linking interpersonal differences in gut microbiota composition and drug biotransformation activity” (2024).

Conditions: human gut metagenome, 24 h, 2 µM
Note: call rule not given here.

| Bacterial Biotransformation | SMILES |
| --- | --- |
| Compound NOT metabolized | CN1CCc2c(c3ccccc3n2Cc2ccccc2)C1.CN1CCc2c(c3ccccc3n2Cc2ccccc2)C1.O=S(=O)(O)c1cccc2c(S(=O)(=O)O)cccc12 |
| Compound metabolized | COC1=CC(=O)C[C@@H](C)[C@]12Oc1c(Cl)c(OC)cc(OC)c1C2=O [GRISEOFULVIN] |

Assay: (§1) The drug is tested on Z-006 corresponding to mouse gut metagenome with ENA study accession number: PRJEB37062 and ENA sample accession number: ERS12561806 for biotransformation under anaerobic condition. The drug concentrations were measured over 9 timepoints collected between 0 and 24 hours of incubation by liquid-chromatography-coupled mass spectrometry (LC–MS)
Conditions: 2 µM

| Bacterial Biotransformation | SMILES |
| --- | --- |
| Compound NOT metabolized | CN1CCc2c(c3ccccc3n2Cc2ccccc2)C1.CN1CCc2c(c3ccccc3n2Cc2ccccc2)C1.O=S(=O)(O)c1cccc2c(S(=O)(=O)O)cccc12 |
| Compound metabolized | COC1=CC(=O)C[C@@H](C)[C@]12Oc1c(Cl)c(OC)cc(OC)c1C2=O [GRISEOFULVIN] |

Assay: as §1, with “WLS-027” for “Z-006”, “human” for “mouse”, “ERS12561744” for “ERS12561806”
Conditions: 2 µM

| Bacterial Biotransformation | SMILES |
| --- | --- |
| Compound metabolized | CN1CCc2c(c3ccccc3n2Cc2ccccc2)C1.CN1CCc2c(c3ccccc3n2Cc2ccccc2)C1.O=S(=O)(O)c1cccc2c(S(=O)(=O)O)cccc12 |
| Compound metabolized | COC1=CC(=O)C[C@@H](C)[C@]12Oc1c(Cl)c(OC)cc(OC)c1C2=O [GRISEOFULVIN] |

Conditions: human gut metagenome, 24 h, 2 µM
Remark: another data set of the same source

| Bacterial Biotransformation | SMILES |
| --- | --- |
| Compound NOT metabolized | CN1CCc2c(c3ccccc3n2Cc2ccccc2)C1.CN1CCc2c(c3ccccc3n2Cc2ccccc2)C1.O=S(=O)(O)c1cccc2c(S(=O)(=O)O)cccc12 |
| Compound metabolized | COC1=CC(=O)C[C@@H](C)[C@]12Oc1c(Cl)c(OC)cc(OC)c1C2=O [GRISEOFULVIN] |

Conditions: human gut metagenome, 24 h, 2 µM
Remark: another data set of the same source

| Bacterial Biotransformation | SMILES |
| --- | --- |
| Compound NOT metabolized | CN1CCc2c(c3ccccc3n2Cc2ccccc2)C1.CN1CCc2c(c3ccccc3n2Cc2ccccc2)C1.O=S(=O)(O)c1cccc2c(S(=O)(=O)O)cccc12 |
| Compound NOT metabolized | COC1=CC(=O)C[C@@H](C)[C@]12Oc1c(Cl)c(OC)cc(OC)c1C2=O [GRISEOFULVIN] |

Assay: as §1, with “Z-011” for “Z-006”, “ERS12561811” for “ERS12561806”
Conditions: 2 µM

| Bacterial Biotransformation | SMILES |
| --- | --- |
| Compound NOT metabolized | CN1CCc2c(c3ccccc3n2Cc2ccccc2)C1.CN1CCc2c(c3ccccc3n2Cc2ccccc2)C1.O=S(=O)(O)c1cccc2c(S(=O)(=O)O)cccc12 |
| Compound metabolized | COC1=CC(=O)C[C@@H](C)[C@]12Oc1c(Cl)c(OC)cc(OC)c1C2=O [GRISEOFULVIN] |

Assay: as §1, with “Z-023” for “Z-006”, “to” for “to mouse gut”, “ERS12561822” for “ERS12561806”
Conditions: 2 µM

| Bacterial Biotransformation | SMILES |
| --- | --- |
| Compound NOT metabolized | CN1CCc2c(c3ccccc3n2Cc2ccccc2)C1.CN1CCc2c(c3ccccc3n2Cc2ccccc2)C1.O=S(=O)(O)c1cccc2c(S(=O)(=O)O)cccc12 |
| Compound metabolized | COC1=CC(=O)C[C@@H](C)[C@]12Oc1c(Cl)c(OC)cc(OC)c1C2=O [GRISEOFULVIN] |

Assay: as §1, with “WLS-052” for “Z-006”, “human” for “mouse”, “ERS12561747” for “ERS12561806”
Conditions: 2 µM

| Bacterial Biotransformation | SMILES |
| --- | --- |
| Compound NOT metabolized | CN1CCc2c(c3ccccc3n2Cc2ccccc2)C1.CN1CCc2c(c3ccccc3n2Cc2ccccc2)C1.O=S(=O)(O)c1cccc2c(S(=O)(=O)O)cccc12 |
| Compound metabolized | COC1=CC(=O)C[C@@H](C)[C@]12Oc1c(Cl)c(OC)cc(OC)c1C2=O [GRISEOFULVIN] |

Conditions: human gut metagenome, 24 h, 2 µM
Remark: another data set of the same source

| Bacterial Biotransformation | SMILES |
| --- | --- |
| Compound NOT metabolized | CN1CCc2c(c3ccccc3n2Cc2ccccc2)C1.CN1CCc2c(c3ccccc3n2Cc2ccccc2)C1.O=S(=O)(O)c1cccc2c(S(=O)(=O)O)cccc12 |
| Compound NOT metabolized | COC1=CC(=O)C[C@@H](C)[C@]12Oc1c(Cl)c(OC)cc(OC)c1C2=O [GRISEOFULVIN] |

Assay: as §1, with “WLS-098” for “Z-006”, “human” for “mouse”, “ERS12561754” for “ERS12561806”
Conditions: 2 µM

| Bacterial Biotransformation | SMILES |
| --- | --- |
| Compound NOT metabolized | CN1CCc2c(c3ccccc3n2Cc2ccccc2)C1.CN1CCc2c(c3ccccc3n2Cc2ccccc2)C1.O=S(=O)(O)c1cccc2c(S(=O)(=O)O)cccc12 |
| Compound NOT metabolized | COC1=CC(=O)C[C@@H](C)[C@]12Oc1c(Cl)c(OC)cc(OC)c1C2=O [GRISEOFULVIN] |

Assay: as §1, with “Z-021” for “Z-006”, “to” for “to mouse gut”, “ERS12561820” for “ERS12561806”
Conditions: 2 µM

| Bacterial Biotransformation | SMILES |
| --- | --- |
| Compound NOT metabolized | CN1CCc2c(c3ccccc3n2Cc2ccccc2)C1.CN1CCc2c(c3ccccc3n2Cc2ccccc2)C1.O=S(=O)(O)c1cccc2c(S(=O)(=O)O)cccc12 |
| Compound metabolized | COC1=CC(=O)C[C@@H](C)[C@]12Oc1c(Cl)c(OC)cc(OC)c1C2=O [GRISEOFULVIN] |

Conditions: human gut metagenome, 24 h, 2 µM
Remark: another data set of the same source

| Bacterial Biotransformation | SMILES |
| --- | --- |
| Compound NOT metabolized | CN1CCc2c(c3ccccc3n2Cc2ccccc2)C1.CN1CCc2c(c3ccccc3n2Cc2ccccc2)C1.O=S(=O)(O)c1cccc2c(S(=O)(=O)O)cccc12 |
| Compound metabolized | COC1=CC(=O)C[C@@H](C)[C@]12Oc1c(Cl)c(OC)cc(OC)c1C2=O [GRISEOFULVIN] |

Assay: as §1, with “WLS-010” for “Z-006”, “human” for “mouse”, “ERS12561743” for “ERS12561806”
Conditions: 2 µM

| Bacterial Biotransformation | SMILES |
| --- | --- |
| Compound NOT metabolized | CN1CCc2c(c3ccccc3n2Cc2ccccc2)C1.CN1CCc2c(c3ccccc3n2Cc2ccccc2)C1.O=S(=O)(O)c1cccc2c(S(=O)(=O)O)cccc12 |
| Compound metabolized | COC1=CC(=O)C[C@@H](C)[C@]12Oc1c(Cl)c(OC)cc(OC)c1C2=O [GRISEOFULVIN] |

Assay: as §1, with “Z-025” for “Z-006”, “rabbit” for “mouse”, “ERS12561824” for “ERS12561806”
Conditions: 2 µM

| Bacterial Biotransformation | SMILES |
| --- | --- |
| Compound metabolized | CN1CCc2c(c3ccccc3n2Cc2ccccc2)C1.CN1CCc2c(c3ccccc3n2Cc2ccccc2)C1.O=S(=O)(O)c1cccc2c(S(=O)(=O)O)cccc12 |
| Compound metabolized | COC1=CC(=O)C[C@@H](C)[C@]12Oc1c(Cl)c(OC)cc(OC)c1C2=O [GRISEOFULVIN] |

Assay: as §1, with “Z-022” for “Z-006”, “ERS12561821” for “ERS12561806”
Conditions: 2 µM

| Bacterial Biotransformation | SMILES |
| --- | --- |
| Compound NOT metabolized | CN1CCc2c(c3ccccc3n2Cc2ccccc2)C1.CN1CCc2c(c3ccccc3n2Cc2ccccc2)C1.O=S(=O)(O)c1cccc2c(S(=O)(=O)O)cccc12 |
| Compound metabolized | COC1=CC(=O)C[C@@H](C)[C@]12Oc1c(Cl)c(OC)cc(OC)c1C2=O [GRISEOFULVIN] |

Conditions: human gut metagenome, 24 h, 2 µM
Remark: another data set of the same source

| Bacterial Biotransformation | SMILES |
| --- | --- |
| Compound NOT metabolized | CN1CCc2c(c3ccccc3n2Cc2ccccc2)C1.CN1CCc2c(c3ccccc3n2Cc2ccccc2)C1.O=S(=O)(O)c1cccc2c(S(=O)(=O)O)cccc12 |
| Compound metabolized | COC1=CC(=O)C[C@@H](C)[C@]12Oc1c(Cl)c(OC)cc(OC)c1C2=O [GRISEOFULVIN] |

Conditions: human gut metagenome, 24 h, 2 µM
Remark: another data set of the same source

| Bacterial Biotransformation | SMILES |
| --- | --- |
| Compound NOT metabolized | CN1CCc2c(c3ccccc3n2Cc2ccccc2)C1.CN1CCc2c(c3ccccc3n2Cc2ccccc2)C1.O=S(=O)(O)c1cccc2c(S(=O)(=O)O)cccc12 |
| Compound metabolized | COC1=CC(=O)C[C@@H](C)[C@]12Oc1c(Cl)c(OC)cc(OC)c1C2=O [GRISEOFULVIN] |

Conditions: human gut metagenome, 24 h, 2 µM
Remark: another data set of the same source

| Bacterial Biotransformation | SMILES |
| --- | --- |
| Compound metabolized | CN1CCc2c(c3ccccc3n2Cc2ccccc2)C1.CN1CCc2c(c3ccccc3n2Cc2ccccc2)C1.O=S(=O)(O)c1cccc2c(S(=O)(=O)O)cccc12 |
| Compound metabolized | COC1=CC(=O)C[C@@H](C)[C@]12Oc1c(Cl)c(OC)cc(OC)c1C2=O [GRISEOFULVIN] |

Assay: as §1, with “WLS-039” for “Z-006”, “human” for “mouse”, “ERS12561746” for “ERS12561806”
Conditions: 2 µM

| Bacterial Biotransformation | SMILES |
| --- | --- |
| Compound metabolized | CN1CCc2c(c3ccccc3n2Cc2ccccc2)C1.CN1CCc2c(c3ccccc3n2Cc2ccccc2)C1.O=S(=O)(O)c1cccc2c(S(=O)(=O)O)cccc12 |
| Compound metabolized | COC1=CC(=O)C[C@@H](C)[C@]12Oc1c(Cl)c(OC)cc(OC)c1C2=O [GRISEOFULVIN] |

Conditions: human gut metagenome, 24 h, 2 µM
Remark: another data set of the same source

| Bacterial Biotransformation | SMILES |
| --- | --- |
| Compound NOT metabolized | CN1CCc2c(c3ccccc3n2Cc2ccccc2)C1.CN1CCc2c(c3ccccc3n2Cc2ccccc2)C1.O=S(=O)(O)c1cccc2c(S(=O)(=O)O)cccc12 |
| Compound NOT metabolized | COC1=CC(=O)C[C@@H](C)[C@]12Oc1c(Cl)c(OC)cc(OC)c1C2=O [GRISEOFULVIN] |
